Data as given in ChEMBL document CHEMBL2203180, “Novel nitric oxide-releasing isochroman-4-one derivatives: Synthesis and evaluation of antihypertensive activity” (Bioorg Med Chem, 2012).
Blank lines part the entries; values can stand above or below the molecule they belong to. Calls of active or inactive are those of the source. No cut-off for these calls is given here.

Tests used:
[1] = Induction of nitric oxide release in 0.1 mM phosphate buffer solution at pH 7.4 assessed as nitrate/nitrite level after 120 mins by Griess assay; assay type: physicochemical; conditions: pH 7.4, 2 h
[2] = Induction of nitric oxide release in 0.1 mM phosphate buffer solution at pH 7.4 assessed as nitrate/nitrite level after 100 mins by Griess assay; assay type: physicochemical; conditions: pH 7.4, 100 min
[3] = Induction of nitric oxide release in 0.1 mM phosphate buffer solution at pH 7.4 assessed as nitrate/nitrite level after 80 mins by Griess assay; assay type: physicochemical; conditions: pH 7.4, 80 min
[4] = Induction of nitric oxide release in 0.1 mM phosphate buffer solution at pH 7.4 assessed as nitrate/nitrite level after 60 mins by Griess assay; assay type: physicochemical; conditions: pH 7.4, 1 h
[5] = Induction of nitric oxide release in 0.1 mM phosphate buffer solution at pH 7.4 assessed as nitrate/nitrite level after 30 mins by Griess assay; assay type: physicochemical; conditions: pH 7.4, 0.5 h
[6] = Induction of nitric oxide release in 0.1 mM phosphate buffer solution at pH 7.4 assessed as nitrate/nitrite level after 10 mins by Griess assay; assay type: physicochemical; conditions: pH 7.4, 10 min
[7] = Induction of nitric oxide release in 0.1 mM phosphate buffer solution at pH 7.4 assessed as nitrate/nitrite level after 150 mins by Griess assay; assay type: physicochemical; conditions: pH 7.4, 2.5 h
[8] = test system: Rattus norvegicus; experiment: Antihypertensive activity in spontaneously hypertensive rat assessed as reduction of diastolic arterial pressure at 80 mg/kg, po after 6 to 12 hrs; assay type: functional, Artery; parameters: scale not given: the % may be the effect or the level left
[9] = test system: Rattus norvegicus; experiment: Toxicity in spontaneously hypertensive rat assessed as change in heart rate at 80 mg/kg, po up to 24 hrs; assay type: organism-based; parameters: dose 80 mg/kg, route oral; conditions: in vivo
[10] = test system: Rattus norvegicus; experiment: Antihypertensive activity in spontaneously hypertensive rat assessed as reduction of diastolic arterial pressure at 40 mg/kg, po up to 24 hrs; assay type: functional, organism-based; parameters: dose 40 mg/kg; conditions: Artery
[11] = test system: Rattus norvegicus; experiment: Antihypertensive activity in spontaneously hypertensive rat assessed as reduction of mean artery pressure at 80 mg/kg, po up to 24 hrs; assay type: functional, organism-based; parameters: dose 80 mg/kg
[12] = test system: Rattus norvegicus; experiment: Antihypertensive activity in spontaneously hypertensive rat assessed as reduction of blood pressure at 80 mg/kg, po up to 24 hrs; assay type: functional; parameters: scale not given: the % may be the effect or the level left
[13] = Induction of nitric oxide release in 0.1 mM phosphate buffer solution at pH 7.4 assessed as nitrate/nitrite level after 10 to 150 mins by Griess assay; assay type: physicochemical
[14] = test system: Rattus norvegicus; experiment: Antihypertensive activity in spontaneously hypertensive rat assessed as reduction of diastolic arterial pressure at 40 mg/kg, po after 6 to 12 hrs; assay type: functional, Artery; parameters: scale not given: the % may be the effect or the level left

SMILES: COc1cc2c(cc1OCCO[N+](=O)[O-])C(=O)C(C)OC2 (centres undefined)
Activity [1]: 8.1 µmol/L | Activity [2]: 7.56 µmol/L | Activity [3]: 6.52 µmol/L | Activity [4]: 6.04 µmol/L | Activity [5]: 5.84 µmol/L | Activity [6]: 5.56 µmol/L | Activity [7]: 10.06 µmol/L

SMILES: COc1ccc2c(c1OCCO[N+](=O)[O-])COC(C)C2=O (centres undefined)
Activity [1]: 14.61 µmol/L | Activity [2]: 10.5 µmol/L | Activity [3]: 7.29 µmol/L | Activity [4]: 4.53 µmol/L | Activity [5]: 1.78 µmol/L | Activity [6]: 1.51 µmol/L | Activity [8]: >30% | Activity [9]: Non-toxic | Activity [10]: Active | Activity [11]: Active | Activity [12]: 40% | Activity [7]: 16.26 µmol/L

SMILES: CC1OCc2c(ccc(O)c2O)C1=O (racemic)
Activity [10]: Active

SMILES: COc1ccc2c(c1OCC(=O)OCCCO[N+](=O)[O-])COC(C)C2=O (centres undefined)
Activity [1]: 4.01 µmol/L | Activity [2]: 3.95 µmol/L | Activity [3]: 3.84 µmol/L | Activity [4]: 2.27 µmol/L | Activity [5]: 1.19 µmol/L | Activity [6]: 0.84 µmol/L | Activity [7]: 4.86 µmol/L

SMILES: COc1cc2c(cc1O)COC(C)C2=O (centres undefined)
Activity [13]: Not Active

SMILES: COc1ccc2c(c1OCCCO[N+](=O)[O-])COC(C)C2=O (centres undefined)
Activity [1]: 9.43 µmol/L | Activity [2]: 9.4 µmol/L | Activity [3]: 9.27 µmol/L | Activity [4]: 9.23 µmol/L | Activity [5]: 7.45 µmol/L | Activity [6]: 7.42 µmol/L | Activity [7]: 9.47 µmol/L

SMILES: COc1ccc2c(c1OCC(=O)OCCO[N+](=O)[O-])COC(C)C2=O (centres undefined)
Activity [1]: 13.27 µmol/L | Activity [2]: 13.35 µmol/L | Activity [3]: 13.12 µmol/L | Activity [4]: 13 µmol/L | Activity [5]: 10.84 µmol/L | Activity [6]: 10.62 µmol/L | Activity [10]: Active | Activity [7]: 16.68 µmol/L

SMILES: COc1cc2c(cc1OCCO[N+](=O)[O-])COC(C)C2=O (centres undefined)
Activity [1]: 12.27 µmol/L | Activity [2]: 12.09 µmol/L | Activity [3]: 11.28 µmol/L | Activity [4]: 11.24 µmol/L | Activity [5]: 10.25 µmol/L | Activity [6]: 10.12 µmol/L | Activity [7]: 14.72 µmol/L

SMILES: CC1OCc2cc(O)c(O)cc2C1=O (racemic)
Activity [10]: Active

SMILES: COc1cc2c(cc1O)C(=O)C(C)OC2 (centres undefined)
Activity [13]: Not Active

SMILES: COc1ccc2c(c1OCCCCO[N+](=O)[O-])COC(C)C2=O (centres undefined)
Activity [1]: 4.01 µmol/L | Activity [2]: 4.03 µmol/L | Activity [3]: 3.84 µmol/L | Activity [4]: 3.02 µmol/L | Activity [5]: 2.46 µmol/L | Activity [6]: 2.19 µmol/L | Activity [7]: 4.02 µmol/L

SMILES: C[C@H](CS)C(=O)N1CCC[C@H]1C(=O)O [CAPTOPRIL]
Activity [10]: Active | Activity [14]: >30%

SMILES: COc1ccc2c(c1O)COC(C)C2=O (centres undefined)
Activity [13]: Not Active

Further lines, with some results ahead:

Activity [1]: 6.09 µmol/L | Activity [2]: 6.05 µmol/L | Activity [3]: 5.93 µmol/L | Activity [4]: 4.87 µmol/L | Activity [5]: 4.83 µmol/L | Activity [6]: 4.81 µmol/L | Activity [7]: 7.54 µmol/L
SMILES: COc1cc2c(cc1OCCCCO[N+](=O)[O-])C(=O)C(C)OC2 (centres undefined)

Activity [1]: 8.68 µmol/L | Activity [2]: 8.31 µmol/L | Activity [3]: 7.85 µmol/L | Activity [4]: 7.72 µmol/L | Activity [5]: 5.17 µmol/L | Activity [6]: 4.81 µmol/L | Activity [7]: 12.99 µmol/L
SMILES: COc1cc2c(cc1OCCCCO[N+](=O)[O-])COC(C)C2=O (centres undefined)

Activity [1]: 6.59 µmol/L | Activity [2]: 6.55 µmol/L | Activity [3]: 6.27 µmol/L | Activity [4]: 6.04 µmol/L | Activity [5]: 5.08 µmol/L | Activity [6]: 4.05 µmol/L | Activity [7]: 8.72 µmol/L
SMILES: COc1ccc2c(c1OCC(=O)OCCCCO[N+](=O)[O-])COC(C)C2=O (centres undefined)

Activity [1]: 8.6 µmol/L | Activity [2]: 8.23 µmol/L | Activity [3]: 7.77 µmol/L | Activity [4]: 6.29 µmol/L | Activity [5]: 5.76 µmol/L | Activity [6]: 5.65 µmol/L | Activity [7]: 8.72 µmol/L
SMILES: COc1cc2c(cc1OCC(=O)OCCCO[N+](=O)[O-])C(=O)C(C)OC2 (centres undefined)

Activity [1]: 7.01 µmol/L | Activity [2]: 6.89 µmol/L | Activity [3]: 6.77 µmol/L | Activity [4]: 6.29 µmol/L | Activity [5]: 5.59 µmol/L | Activity [6]: 5.14 µmol/L | Activity [7]: 7.04 µmol/L
SMILES: COc1cc2c(cc1OCCCO[N+](=O)[O-])C(=O)C(C)OC2 (centres undefined)

Activity [1]: 12.1 µmol/L | Activity [2]: 12.09 µmol/L | Activity [3]: 11.95 µmol/L | Activity [4]: 10.07 µmol/L | Activity [5]: 8.81 µmol/L | Activity [6]: 8.43 µmol/L | Activity [7]: 13.99 µmol/L
SMILES: COc1cc2c(cc1OCC(=O)OCCO[N+](=O)[O-])C(=O)C(C)OC2 (centres undefined)

Activity [1]: 11.69 µmol/L | Activity [2]: 11.67 µmol/L | Activity [3]: 11.7 µmol/L | Activity [4]: 8.72 µmol/L | Activity [5]: 7.45 µmol/L | Activity [6]: 7.42 µmol/L | Activity [7]: 14.92 µmol/L
SMILES: COc1cc2c(cc1OCC(=O)OCCCCO[N+](=O)[O-])COC(C)C2=O (centres undefined)

Activity [1]: 12.94 µmol/L | Activity [2]: 11.34 µmol/L | Activity [3]: 11.11 µmol/L | Activity [4]: 8.64 µmol/L | Activity [5]: 6.94 µmol/L | Activity [6]: 6.66 µmol/L | Activity [7]: 16.26 µmol/L
SMILES: COc1cc2c(cc1OCC(=O)OCCO[N+](=O)[O-])COC(C)C2=O (centres undefined)

Activity [1]: 17.61 µmol/L | Activity [2]: 14.61 µmol/L | Activity [3]: 14.7 µmol/L | Activity [4]: 11.91 µmol/L | Activity [5]: 10.41 µmol/L | Activity [6]: 10.37 µmol/L | Activity [7]: 20.62 µmol/L
SMILES: COc1cc2c(cc1OCC(=O)OCCCO[N+](=O)[O-])COC(C)C2=O (centres undefined)
Activity [8]: >30% | Activity [9]: Non-toxic | Activity [10]: Active | Activity [11]: Active | Activity [12]: 40%

Activity [1]: 9.02 µmol/L | Activity [2]: 8.9 µmol/L | Activity [3]: 8.69 µmol/L | Activity [4]: 7.13 µmol/L | Activity [5]: 6.01 µmol/L | Activity [6]: 5.73 µmol/L | Activity [7]: 10.81 µmol/L
SMILES: COc1cc2c(cc1OCC(=O)OCCCCO[N+](=O)[O-])C(=O)C(C)OC2 (centres undefined)

Activity [1]: 18.95 µmol/L | Activity [2]: 18.81 µmol/L | Activity [3]: 18.3 µmol/L | Activity [4]: 18.12 µmol/L | Activity [5]: 17.87 µmol/L | Activity [6]: 17.45 µmol/L | Activity [7]: 28.58 µmol/L
SMILES: COc1cc2c(cc1OCCCO[N+](=O)[O-])COC(C)C2=O (centres undefined)
Activity [8]: >30% | Activity [9]: Non-toxic | Activity [10]: Active | Activity [11]: Active | Activity [12]: 40%
